The source made the active and inactive calls.
Assays:
[1] = biological target: T1, Voltage-gated N-type calcium channel alpha-1B subunit/Amyloid beta A4 precursor protein-binding family A member 1 (Homo sapiens, UniProt Q00975+Q02410); type: protein assay
[2] = biological target: T2, Rac GTPase-activating protein 1 (Homo sapiens, UniProt Q9H0H5); test: MgcRacGAP GTPase-activating activity inhibitors, confirmation, biochemical, ADP Hunter fluorescence, primary and confirmatory (AID 624330); type: functional
T2 sequence (Q9H0H5 whole entry): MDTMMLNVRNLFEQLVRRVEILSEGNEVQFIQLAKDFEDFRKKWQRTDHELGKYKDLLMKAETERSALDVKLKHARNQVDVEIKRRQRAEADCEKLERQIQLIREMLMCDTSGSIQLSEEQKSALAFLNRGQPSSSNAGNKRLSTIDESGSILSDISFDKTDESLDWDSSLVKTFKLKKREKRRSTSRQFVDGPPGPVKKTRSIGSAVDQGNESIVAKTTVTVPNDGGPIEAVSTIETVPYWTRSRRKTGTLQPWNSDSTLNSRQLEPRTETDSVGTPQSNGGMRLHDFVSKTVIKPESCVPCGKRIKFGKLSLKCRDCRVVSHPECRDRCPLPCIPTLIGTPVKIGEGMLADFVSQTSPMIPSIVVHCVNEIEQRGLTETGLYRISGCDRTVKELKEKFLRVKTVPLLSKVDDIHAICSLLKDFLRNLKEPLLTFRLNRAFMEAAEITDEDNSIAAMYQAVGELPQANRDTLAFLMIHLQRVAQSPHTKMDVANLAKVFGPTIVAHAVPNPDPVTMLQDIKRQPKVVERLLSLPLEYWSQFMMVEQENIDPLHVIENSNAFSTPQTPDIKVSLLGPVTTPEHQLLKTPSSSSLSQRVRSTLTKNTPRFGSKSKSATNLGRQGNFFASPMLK

Genome polyprotein = Genome polyprotein (dengue virus type 2, UniProt P29990); test: Dengue-2 NS5 methyltransferase inhibitors, primary screen, biochemical, confirmation dose response (AID 588689); type: functional
[3] = biological target: T3, Polyadenylate-binding protein 1 (Homo sapiens, UniProt P11940); test: PABP1 MLLE–PAM2 interaction inhibitors, dose response, miRNA deadenylation inhibitor project, biochemical, fluorescence polarization, Cy5-PAM2 peptide, secondary (AID 602260); type: functional; conditions: read-out: IC50_Mean
T3 sequence (P11940 whole entry): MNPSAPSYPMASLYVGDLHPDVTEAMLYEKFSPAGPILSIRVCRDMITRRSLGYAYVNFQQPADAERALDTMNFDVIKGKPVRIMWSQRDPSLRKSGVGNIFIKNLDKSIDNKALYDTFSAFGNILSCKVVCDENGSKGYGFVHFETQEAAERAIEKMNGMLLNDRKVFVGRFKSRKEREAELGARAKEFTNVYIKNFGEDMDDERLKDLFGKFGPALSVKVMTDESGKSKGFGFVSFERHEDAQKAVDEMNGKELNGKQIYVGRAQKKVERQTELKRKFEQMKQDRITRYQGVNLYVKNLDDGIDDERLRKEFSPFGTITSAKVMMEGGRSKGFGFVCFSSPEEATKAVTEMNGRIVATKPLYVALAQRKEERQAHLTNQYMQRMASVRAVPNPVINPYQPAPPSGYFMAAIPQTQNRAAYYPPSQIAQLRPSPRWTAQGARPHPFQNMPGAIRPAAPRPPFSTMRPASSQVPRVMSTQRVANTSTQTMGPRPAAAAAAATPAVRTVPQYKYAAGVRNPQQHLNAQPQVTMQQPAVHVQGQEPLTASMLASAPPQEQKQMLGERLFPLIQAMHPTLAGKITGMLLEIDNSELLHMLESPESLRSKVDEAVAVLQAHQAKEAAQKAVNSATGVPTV

[4] = biological target: T3, Polyadenylate-binding protein 1; test: PABP1 MLLE–PAM2 binding inhibitor potency, dose response, biochemical, fluorescence polarization, FITC-PAM2 peptide (AID 602259); type: functional; conditions: read-out: IC50_Mean
[5] = biological target: T1, Voltage-gated N-type calcium channel alpha-1B subunit/Amyloid beta A4 precursor protein-binding family A member 1; type: protein assay; remark: listed apart in the source
[6] = biological target: DNA damage-inducible transcript 3 protein (Mus musculus, UniProt P35639); type: functional, Cricetulus griseus
Troponin, cardiac muscle = Troponin, cardiac muscle (Homo sapiens, UniProt P19429+P45379+P63316); test: Fluorescence-based biochemical high throughput dose response assay for activators of the calcium sensitivity of cardiac Regulated Thin Filaments (RTF). [Related pubchem assays (depositor defined):AID493008, AID493018, AID504382, AID504383]; type: protein-complex assay
[7] = inhibitors of SNCA 5'UTR-driven reporter translation, confirmation, H4 neuroglioma cells, luminescence (AID 1988); type: functional, cell-based
[8] = Luminescence Cell-Based Dose Response HTS to Identify Inhibitors of 5'UTR Stem-Loop Driven Prion Protein mRNA Translation in H4 Neuroglioblastoma Cells. [Related pubchem assays: 1827 (Project Summary), 1813 (Primary HTS)]; type: functional
[9] = biological target: G-protein coupled receptor 55 (Homo sapiens, UniProt Q9Y2T6); test: GPR55 antagonists blocking LPI-driven arrestin recruitment, primary screen, imaging, U2OS, beta-arrestin-GFP, LPI agonist (AID 2013); type: functional;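 also: antagonist potency measured as reduced agonist-driven arrestin aggregation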
[10] = inhibitors of firefly luciferase expression or activity, dose response, H4 neuroglioma cells, luminescence (AID 1990); type: functional, cell-based
Bcl-2-related protein A1 = biological target: T4, Bcl-2-related protein A1 (Mus musculus, UniProt Q07440); type: functional;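 also: confirmatory dose–response counterscreen on Bfl-1, used to check hits from a UBC13 polyubiquitin inhibitor campaign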
T4 sequence (Q07440 whole entry): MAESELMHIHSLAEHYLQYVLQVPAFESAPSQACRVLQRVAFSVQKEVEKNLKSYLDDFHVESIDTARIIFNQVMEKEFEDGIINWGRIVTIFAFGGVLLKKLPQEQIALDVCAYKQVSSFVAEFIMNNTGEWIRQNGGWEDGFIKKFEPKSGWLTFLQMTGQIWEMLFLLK

[11] = biological target: T5, Ubiquitin-conjugating enzyme E2 N (Homo sapiens, UniProt P61088); type: functional
T5 sequence (P61088 whole entry): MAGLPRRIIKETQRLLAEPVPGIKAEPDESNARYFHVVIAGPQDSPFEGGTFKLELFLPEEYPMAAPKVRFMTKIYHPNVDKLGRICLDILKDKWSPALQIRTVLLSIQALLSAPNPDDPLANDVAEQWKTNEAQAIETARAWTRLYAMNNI

[12] = cytotoxicity toward NIH3T3 fibroblasts, dose response, counter-screen, cell-based, ATP luminescence, mouse fibroblasts (AID 2010); type: functional;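 also: cells exposed to compound for about 90 hours before reading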
[13] = inhibitors of intracellular T. cruzi replication, confirmation, NIH3T3 host cells, beta-gal luminescence (AID 2044); type: functional, cell-based;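 also: intracellular parasites grown in NIH/3T3 mouse fibroblasts as host cells; luminescent beta-galactosidase reporter signal from transgenic T. cruzi replicating inside host cells; inhibitors lower the luminescence signal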
[14] = biological target: T5, Ubiquitin-conjugating enzyme E2 N; type: functional; remark: listed apart in the source
[15] = biological target: DNA dC->dU-editing enzyme APOBEC-3G (Homo sapiens, UniProt Q9HC16); type: functional;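 also: Dose-response counterscreen measuring inhibition of APOBEC3G DNA deaminase activity, run while confirming APOBEC3A inhibitors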
Large T antigen = Large T antigen (Simian virus 40, UniProt P03070); type: functional, Betapolyomavirus macacae;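 also: Confirmatory-stage PubChem screen for compounds that inhibit SV40 T antigen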
[16] = biological target: DNA dC->dU-editing enzyme APOBEC-3A (Homo sapiens, UniProt P31941); test: Dose Response confirmation of small molecule APOBEC3A DNA Deaminase Inhibitors via a fluorescence-based single-stranded DNA deaminase assay. [Related pubchem assays (depositor defined):AID493011, AID493024]; type: functional
[17] = growth suppression of PTEN-null colon cells, dose response, cell-based, HCT116 PTEN knockout (AID 1047); type: functional;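 also: HCT116 colon tumor cells with PTEN knocked out; cells exposed to compound for 60 hours before readout; potency for loss of cell viability measured by luminescence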
Beta-galactosidase [18] = biological target: T6, Beta-galactosidase (Escherichia coli, UniProt Q8VNN2); test: Dose response counterscreen for EBI2 assay utilizing the enzyme, b-galactosidase.; type: functional
T6 sequence (Q8VNN2 whole entry): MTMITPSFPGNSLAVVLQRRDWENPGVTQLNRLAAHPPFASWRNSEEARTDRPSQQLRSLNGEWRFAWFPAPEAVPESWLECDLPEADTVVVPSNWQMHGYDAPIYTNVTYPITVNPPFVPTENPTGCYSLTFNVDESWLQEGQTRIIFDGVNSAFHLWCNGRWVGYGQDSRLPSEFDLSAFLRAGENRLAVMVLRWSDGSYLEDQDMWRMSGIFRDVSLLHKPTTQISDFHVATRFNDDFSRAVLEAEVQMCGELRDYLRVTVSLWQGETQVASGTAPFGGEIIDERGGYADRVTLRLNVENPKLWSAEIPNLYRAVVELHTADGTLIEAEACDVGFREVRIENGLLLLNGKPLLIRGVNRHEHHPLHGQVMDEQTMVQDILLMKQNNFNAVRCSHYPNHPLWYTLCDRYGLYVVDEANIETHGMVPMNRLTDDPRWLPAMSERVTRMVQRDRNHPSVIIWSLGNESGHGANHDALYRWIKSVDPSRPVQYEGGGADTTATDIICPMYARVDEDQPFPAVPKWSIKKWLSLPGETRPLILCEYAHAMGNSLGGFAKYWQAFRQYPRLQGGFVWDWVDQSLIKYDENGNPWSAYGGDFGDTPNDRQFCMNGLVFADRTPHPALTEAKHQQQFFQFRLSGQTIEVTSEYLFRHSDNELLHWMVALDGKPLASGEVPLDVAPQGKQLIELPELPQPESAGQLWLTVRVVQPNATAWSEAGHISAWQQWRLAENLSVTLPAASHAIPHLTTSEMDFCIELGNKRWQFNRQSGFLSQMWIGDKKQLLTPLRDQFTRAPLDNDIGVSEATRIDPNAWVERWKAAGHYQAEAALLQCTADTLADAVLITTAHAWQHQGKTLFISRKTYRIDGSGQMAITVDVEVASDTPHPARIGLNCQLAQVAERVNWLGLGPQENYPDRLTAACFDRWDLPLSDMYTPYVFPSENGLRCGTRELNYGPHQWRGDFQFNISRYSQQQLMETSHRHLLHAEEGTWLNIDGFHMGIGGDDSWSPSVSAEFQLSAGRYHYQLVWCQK

[19] = growth suppression of beta-catenin-knockout colon cells, dose response, cell-based, HCT116, human colon tumor (AID 1045); type: functional;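 also: HCT116 colon tumor cells with beta catenin knocked out; cells exposed to compound for 60 hours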
[20] = biological target: Eukaryotic translation initiation factor 4H (Homo sapiens, UniProt Q15056); test: eIF4H inhibition in translation initiation, SAR follow-up (AID 435011); type: functional
[21] = biological target: T3, Polyadenylate-binding protein 1; test: PABP inhibition in translation initiation, SAR follow-up (AID 435018); type: functional
[22] = system: Streptococcus sp. 'group A'; test: growth inhibition of control SK(-) GAS strain, dose response, counter-screen for streptokinase expression inhibitor project, luminescence, kanamycin, BacTiterGlo, confirmation (AID 1900); type: functional, organism-based
Streptokinase A = biological target: T7, Streptokinase A (Streptococcus pyogenes serotype M1, UniProt P10520); test: S. pyogenes streptokinase expression inhibitors, potency, dose response, plasminogen activation absorbance, OD405 (AID 1914); type: functional, Streptococcus pyogenes M1 GAS;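 also: secreted streptokinase activity via plasminogen activation per viability signal from cell pellet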
T7 sequence (P10520 whole entry): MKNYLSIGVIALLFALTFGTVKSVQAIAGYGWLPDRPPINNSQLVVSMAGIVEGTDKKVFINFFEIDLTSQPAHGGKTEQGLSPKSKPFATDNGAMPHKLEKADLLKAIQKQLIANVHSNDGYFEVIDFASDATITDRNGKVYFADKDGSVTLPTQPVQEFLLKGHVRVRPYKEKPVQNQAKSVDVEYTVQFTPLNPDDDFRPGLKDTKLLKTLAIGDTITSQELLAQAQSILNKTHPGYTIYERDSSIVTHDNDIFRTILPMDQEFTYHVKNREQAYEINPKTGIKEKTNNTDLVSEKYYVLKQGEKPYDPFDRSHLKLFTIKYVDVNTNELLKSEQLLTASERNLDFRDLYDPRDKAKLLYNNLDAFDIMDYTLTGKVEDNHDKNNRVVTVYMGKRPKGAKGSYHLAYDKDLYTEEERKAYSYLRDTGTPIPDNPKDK

Beta-galactosidase [23] = biological target: T6, Beta-galactosidase; type: functional
[24] = biological target: T8, Type-1 angiotensin II receptor (Homo sapiens, UniProt P30556); test: AT1 receptor antagonists, dose response, selectivity assay for APJ receptor antagonist project, cell-based, uHTS hits (AID 463214); type: functional;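 also: antagonist potency against angiotensin II stimulated AT1 response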
T8 sequence (P30556 whole entry): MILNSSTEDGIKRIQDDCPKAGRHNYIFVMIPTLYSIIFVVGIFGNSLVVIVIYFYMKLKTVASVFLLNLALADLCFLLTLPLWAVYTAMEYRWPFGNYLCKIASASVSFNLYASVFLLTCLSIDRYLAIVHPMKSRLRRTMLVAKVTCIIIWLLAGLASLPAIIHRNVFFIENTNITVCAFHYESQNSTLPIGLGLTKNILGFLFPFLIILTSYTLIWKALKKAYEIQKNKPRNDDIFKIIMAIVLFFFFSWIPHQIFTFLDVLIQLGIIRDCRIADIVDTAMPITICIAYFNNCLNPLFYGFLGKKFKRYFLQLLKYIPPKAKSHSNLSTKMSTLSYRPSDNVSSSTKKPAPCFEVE

Estrogen receptor = biological target: T9, Estrogen receptor (Homo sapiens, UniProt P03372);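 also: potency for inhibiting coactivator peptide recruitment to the receptor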
T9 sequence (P03372 whole entry): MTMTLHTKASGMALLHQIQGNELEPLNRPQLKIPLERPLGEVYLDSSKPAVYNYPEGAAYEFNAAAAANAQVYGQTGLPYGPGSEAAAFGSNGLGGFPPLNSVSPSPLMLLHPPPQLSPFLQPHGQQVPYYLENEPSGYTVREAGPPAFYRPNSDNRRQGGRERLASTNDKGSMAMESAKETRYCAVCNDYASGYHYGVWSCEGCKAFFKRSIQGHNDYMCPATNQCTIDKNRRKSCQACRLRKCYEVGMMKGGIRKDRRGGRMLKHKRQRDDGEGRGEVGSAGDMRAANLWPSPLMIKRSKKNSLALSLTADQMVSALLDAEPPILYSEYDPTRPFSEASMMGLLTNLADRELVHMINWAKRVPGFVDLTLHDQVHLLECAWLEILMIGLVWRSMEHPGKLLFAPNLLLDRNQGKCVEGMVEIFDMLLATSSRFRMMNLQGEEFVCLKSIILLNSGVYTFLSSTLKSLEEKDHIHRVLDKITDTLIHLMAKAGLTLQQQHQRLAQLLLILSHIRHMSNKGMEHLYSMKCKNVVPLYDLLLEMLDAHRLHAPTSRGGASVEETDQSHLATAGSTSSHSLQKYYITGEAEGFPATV

Streptococcus = test: Group A Streptococcus viability loss, dose response, counter-screen for streptokinase expression inhibitor project, luminescence, BacTiterGlo (AID 1915); type: functional, organism-based;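 also: potency for reduction of bacterial viability or growth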
[25] = biological target: T10, Kappa-type opioid receptor (Homo sapiens, UniProt P41145); type: functional
Beta-galactosidase [26] = biological target: T6, Beta-galactosidase; test: PubChem AID 485352; type: functional
[27] = biological target: T10, Kappa-type opioid receptor; type: functional; remark: listed apart in the source

T1 sequence (Q00975 whole entry): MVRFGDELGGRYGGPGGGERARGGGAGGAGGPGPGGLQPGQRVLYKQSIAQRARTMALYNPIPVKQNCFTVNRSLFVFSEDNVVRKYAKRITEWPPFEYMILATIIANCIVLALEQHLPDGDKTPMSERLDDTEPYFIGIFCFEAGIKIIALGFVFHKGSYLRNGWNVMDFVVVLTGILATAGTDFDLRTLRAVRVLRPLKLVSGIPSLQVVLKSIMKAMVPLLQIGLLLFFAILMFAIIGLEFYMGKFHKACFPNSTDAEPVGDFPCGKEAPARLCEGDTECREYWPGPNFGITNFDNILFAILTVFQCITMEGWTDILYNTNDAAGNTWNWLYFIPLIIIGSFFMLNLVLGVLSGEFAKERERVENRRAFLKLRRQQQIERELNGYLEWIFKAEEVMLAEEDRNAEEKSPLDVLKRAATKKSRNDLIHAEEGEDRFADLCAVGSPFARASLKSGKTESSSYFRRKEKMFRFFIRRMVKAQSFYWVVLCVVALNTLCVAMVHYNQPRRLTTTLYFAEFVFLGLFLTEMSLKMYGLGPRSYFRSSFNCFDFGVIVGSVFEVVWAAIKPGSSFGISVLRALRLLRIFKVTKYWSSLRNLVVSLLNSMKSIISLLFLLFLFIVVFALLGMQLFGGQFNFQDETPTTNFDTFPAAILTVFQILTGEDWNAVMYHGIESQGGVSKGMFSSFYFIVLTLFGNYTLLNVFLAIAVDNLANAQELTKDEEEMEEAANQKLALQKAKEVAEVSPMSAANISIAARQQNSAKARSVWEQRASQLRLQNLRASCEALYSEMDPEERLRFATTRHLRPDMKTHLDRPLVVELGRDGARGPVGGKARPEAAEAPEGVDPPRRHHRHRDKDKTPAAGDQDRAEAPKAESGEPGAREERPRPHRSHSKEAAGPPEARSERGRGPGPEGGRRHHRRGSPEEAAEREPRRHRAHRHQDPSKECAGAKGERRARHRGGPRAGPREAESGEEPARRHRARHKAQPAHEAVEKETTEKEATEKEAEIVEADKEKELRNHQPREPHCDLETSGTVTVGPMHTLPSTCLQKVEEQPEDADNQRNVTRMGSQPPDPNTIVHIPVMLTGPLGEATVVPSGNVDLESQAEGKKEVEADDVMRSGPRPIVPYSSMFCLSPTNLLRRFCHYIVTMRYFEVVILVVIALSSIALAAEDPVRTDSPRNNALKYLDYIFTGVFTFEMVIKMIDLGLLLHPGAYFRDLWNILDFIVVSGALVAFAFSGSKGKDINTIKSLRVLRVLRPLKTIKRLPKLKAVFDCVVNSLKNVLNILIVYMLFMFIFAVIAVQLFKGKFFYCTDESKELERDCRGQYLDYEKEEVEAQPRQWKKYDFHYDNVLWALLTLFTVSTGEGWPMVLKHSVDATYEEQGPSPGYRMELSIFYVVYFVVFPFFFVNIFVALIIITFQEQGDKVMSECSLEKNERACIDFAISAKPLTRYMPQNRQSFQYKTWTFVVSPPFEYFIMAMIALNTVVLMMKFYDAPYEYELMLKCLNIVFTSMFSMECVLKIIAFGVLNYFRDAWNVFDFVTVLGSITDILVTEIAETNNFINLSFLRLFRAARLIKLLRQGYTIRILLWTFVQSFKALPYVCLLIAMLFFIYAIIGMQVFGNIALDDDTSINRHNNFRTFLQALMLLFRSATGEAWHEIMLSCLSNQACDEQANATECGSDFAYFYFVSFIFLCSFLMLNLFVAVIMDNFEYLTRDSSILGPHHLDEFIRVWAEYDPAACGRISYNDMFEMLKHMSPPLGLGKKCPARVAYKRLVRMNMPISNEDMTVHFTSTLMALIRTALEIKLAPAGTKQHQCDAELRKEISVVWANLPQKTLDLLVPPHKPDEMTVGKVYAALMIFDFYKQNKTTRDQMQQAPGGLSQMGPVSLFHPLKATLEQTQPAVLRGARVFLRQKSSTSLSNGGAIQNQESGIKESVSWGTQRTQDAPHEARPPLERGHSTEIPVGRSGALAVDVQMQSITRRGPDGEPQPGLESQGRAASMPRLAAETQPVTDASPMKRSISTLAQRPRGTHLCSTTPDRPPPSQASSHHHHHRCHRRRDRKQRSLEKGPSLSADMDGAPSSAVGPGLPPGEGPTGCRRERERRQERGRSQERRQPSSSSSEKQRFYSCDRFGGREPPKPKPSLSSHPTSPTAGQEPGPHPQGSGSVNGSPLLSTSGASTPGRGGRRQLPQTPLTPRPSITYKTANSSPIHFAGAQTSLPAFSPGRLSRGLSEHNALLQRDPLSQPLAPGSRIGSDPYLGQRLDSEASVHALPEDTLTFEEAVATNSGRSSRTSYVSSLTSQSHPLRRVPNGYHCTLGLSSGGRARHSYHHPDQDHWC
T1 sequence (Q02410 whole entry): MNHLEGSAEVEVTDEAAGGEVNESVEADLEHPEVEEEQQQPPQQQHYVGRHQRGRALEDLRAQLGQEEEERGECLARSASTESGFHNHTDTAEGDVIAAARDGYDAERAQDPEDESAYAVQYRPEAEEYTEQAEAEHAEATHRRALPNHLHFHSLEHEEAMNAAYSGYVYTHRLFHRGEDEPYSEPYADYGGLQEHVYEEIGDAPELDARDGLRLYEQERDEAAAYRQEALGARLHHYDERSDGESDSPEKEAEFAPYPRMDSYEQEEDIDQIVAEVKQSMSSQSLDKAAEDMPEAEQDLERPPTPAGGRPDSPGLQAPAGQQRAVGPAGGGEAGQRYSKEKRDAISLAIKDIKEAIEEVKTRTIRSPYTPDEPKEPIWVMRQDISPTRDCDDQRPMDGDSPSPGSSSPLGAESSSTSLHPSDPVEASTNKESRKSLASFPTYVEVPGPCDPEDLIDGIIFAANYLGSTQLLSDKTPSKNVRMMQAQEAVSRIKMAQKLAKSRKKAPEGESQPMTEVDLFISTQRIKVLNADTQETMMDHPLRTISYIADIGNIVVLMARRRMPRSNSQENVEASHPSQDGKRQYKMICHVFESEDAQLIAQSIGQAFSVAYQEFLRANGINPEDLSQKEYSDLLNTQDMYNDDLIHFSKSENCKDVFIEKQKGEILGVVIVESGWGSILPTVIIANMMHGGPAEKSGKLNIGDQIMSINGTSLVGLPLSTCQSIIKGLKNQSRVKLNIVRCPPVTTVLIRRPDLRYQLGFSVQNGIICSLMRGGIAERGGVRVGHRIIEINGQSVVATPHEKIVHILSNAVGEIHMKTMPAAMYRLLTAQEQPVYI

## O=C(O)CCn1cc(C=C2C(=O)NC(=S)NC2=O)c(-c2ccccc2)n1
[1]
  IC50: 19.8 µM (active)
[2]
  IC50: 86.5 µM (active)
Genome polyprotein
  IC50: 7.65 µM (active)
[3]
  IC50: > 66 µM (inactive)
[4]
  IC50: > 66 µM (inactive)
[5]
  IC50: 13.1 µM (active)

## CCOC(=O)c1sc(NN=C2C(=O)NC(=O)NC2=O)c(C(=O)OCC)c1C
[6]
  Absolute IC50 (CHOP): 10 µM

## O=C(CSc1nnc(COc2ccccc2)o1)N1CCN(c2ccccc2)CC1
Troponin, cardiac muscle
  EC50: > 71.5 µM (inactive)

## COc1ccc(C2c3ccc(O)cc3Oc3ncn4nc(-c5cccnc5)nc4c32)cc1OC (stereo not drawn)
[7]
  EC50: > 120 µM (not active)
[8]
  EC50: 52.3 µM (active)
[9]
  IC50: 1.99 µM (active)
[10]
  EC50: > 120 µM (not active)

## COc1cc2nc(N(CCCN(C)C)C(=O)c3ccc(S(=O)(=O)N4CCc5ccccc5C4)cc3)sc2cc1OC
Bcl-2-related protein A1
  IC50: > 20 µM (inactive)
[11]
  IC50: 8.3 µM (active)
[12]
  EC50: > 60 µM (not active)
cells
  EC50: 0.569 µM (active)
[13]
  EC50: < 0.1 µM (active)
[14]
  IC50: 8.69 µM (active)

## O=C1NC(=O)N(CCc2ccc(F)cc2)C(=O)/C1=C/c1ccco1
[15]
  IC50: 20.5 µM (active)
[1]
  IC50: > 50 µM (inactive)
Large T antigen
  IC50: 12.3 µM (active)
[5]
  IC50: 14.8 µM (active)
[16]
  IC50: 15 µM (active)

## CC1=C(C)C[S+]([O-])N(S(=O)(=O)c2ccccc2)C1 (stereo not drawn)
[1]
  IC50: > 50 µM (inactive)
Large T antigen
  IC50: 19 µM (active)
[5]
  IC50: 41.7 µM (active)

## C=CCNC(=O)/C(C#N)=C/c1ccc(OS(=O)(=O)c2ccc(C)cc2)c(OC)c1
[9]
  IC50: 1.93 µM (active)
[17]
  EC50: 28.1 µM (active)
Beta-galactosidase [18]
  IC50: > 80 µM (inactive)
[19]
  EC50: 26.6 µM (active)

## COc1ccc(C(=O)Nc2cccc3ncccc23)cc1
[20]
  IC50: > 100 µM (inactive)
[21]
  IC50: > 100 µM (inactive)

## Oc1c(/C=N/c2cccc3cccnc23)sc2ccccc12
[22]
  EC50: 7.7 µM (active)
Streptokinase A
  EC50: > 150 µM (not active)
Beta-galactosidase [23]
  EC50: > 31.5 µM (inactive)
[12]
  EC50: > 60 µM (not active)
[24]
  IC50: 2.78 µM (active)
[13]
  EC50: 2.58 µM (active)
Estrogen receptor
  IC50: 5.15 µM (active)
Streptococcus
  EC50: 9.99 µM (active)
[25]
  IC50: 1.12 µM
Beta-galactosidase [26]
  EC50: > 40 µM (inactive)
[27]
  IC50: 4.86 µM (active)
